Biological target: farnesyl protein transferase (Homo sapiens, UniProt P49354+P49356)
Test: FPT IC50 (inhibition of farnesyl protein transferase, in vitro enzyme assay)
Format: biochemical
Conditions: procedure of WO 95/10516, one collective range stated for the five listed compounds
Protocol: FPT IC50 (inhibition of farnesyl protein transferase, in vitro enzyme assay) and COS Cell IC50 (Cell-Based Assay) were determined following the assay procedures described in WO 95/10516, published April 20, 1995. GGPT IC50 (inhibition of geranylgeranyl protein transferase, in vitro enzyme assay), Cell Mat Assay, and anti-tumor activity (in vivo anti-tumor studies) could be determined by the assay procedures described in WO 95/10516. The disclosure of WO 95/10516 is incorporated herein by reference thereto.

IC50 [nM]	Structure (SMILES)
2 to 42	O=C(CC1CCNCC1)N1CCC(C2(O)c3ncc(Br)cc3CCc3cc(Cl)cc(Br)c32)CC1 (centres unmarked) [2 Step A]
2 to 42	NC(=O)CN1CCC(CC(=O)N2CCC(C3(O)c4ncc(Br)cc4CCc4cc(Cl)cc(Br)c43)CC2)CC1 (centres unmarked) [Example 3, 4-[2-[4-(3,10-dibromo-8-chloro-6,11-dihydro-11-hydroxy-5H-benzo[5,6]cyclohepta-[1,2-B]pyridin-11-yl)-1-piperidinyl]-2-oxoethyl]-1-piperidineacetamide]
